Columns and labels:
Assay type in all cases: cell-based
Settings in all cases: single compound
[1] = test system: Glomerella lagenarium Syn. Colletotrichum lagenarium; assay: Glomerella lagenarium growth inhibition in nutrient broth (microtiter plate, photometric, 72 hrs, 620 nm)
Experimental: (§1) Glomerella lagenarium Syn. Colletotrichum lagenarium (Anthracnose of Cucurbits); Conidia of the fungus from cryogenic storage were directly mixed into nutrient broth (PDB potato dextrose broth). A DMSO solution of the test compounds was placed into a microtiter plate (96-well format) and the nutrient broth containing the fungal spores was added to it. The test plates were incubated at 24 C and the inhibition of growth was determined photometrically after 72 hrs at 620 nm.

Sclerotinia sclerotiorum = Sclerotinia sclerotiorum growth inhibition in nutrient broth (microtiter plate, photometric, 72 hrs, 620 nm)
Experimental: Sclerotinia sclerotiorum (Cottony Rot, White Mold, Etc.); Mycelial fragments of the fungus prepared from a fresh liquid culture were directly mixed into nutrient broth (PDB potato dextrose broth). A DMSO solution of the test compounds was placed into a microtiter plate (96-well format) and the nutrient broth containing the fungal spores was added to it. The test plates were incubated at 24 C and the inhibition of growth was determined photometrically after 72 hrs at 620 nm

Alternaria solani = Alternaria solani growth inhibition in nutrient broth (microtiter plate, photometric, 48 hrs)
Experimental: as §1, with “Alternaria solani (Early Blight Tomato/Potato):” for “Glomerella lagenarium Syn. Colletotrichum lagenarium (Anthracnose of Cucurbits);”, “48 hrs.” for “72 hrs at 620 nm.”

Septoria tritici = Septoria tritici growth inhibition in nutrient broth (microtiter plate, photometric, 72 hrs)
Experimental: as §1, with “Septoria tritici (Leaf Blotch):” for “Glomerella lagenarium Syn. Colletotrichum lagenarium (Anthracnose of Cucurbits);”, “hrs.” for “hrs at 620 nm.”

[2] = test system: Mycosphaerella arachidis Syn. Cercospora arachidicola; assay: Mycosphaerella arachidis growth inhibition in nutrient broth (microtiter plate, photometric, 5-6 days, 620 nm)
Experimental: as §1, with “Mycosphaerella arachidis” for “Glomerella lagenarium”, “Cercospora arachidicola (Brown Leaf Spot” for “Colletotrichum lagenarium (Anthracnose”, “Peanut):” for “Cucurbits);”, “5-6 days” for “72 hrs”, “nm” for “nm.”

Q: How did the “Observed Activity” value ([1]; 0.074 ppm) turn out when CCn1nccc1-c1c(Cl)cccc1Cc1cc2ccc(F)c(F)c2nc1C [3-[[3-chloro-2-(2-ethylpyrazol-3-yl)phenyl]methyl]-7,8-difluoro-2-methyl-quinoline] was run?
A: 20%

Q: And the “Observed Activity” value ([1]; 0.22 ppm)?
A: 90%

Q: And the “Observed Activity” value ([1]; 0.74 ppm)?
A: 20%

Q: And the “Observed Activity” value (Sclerotinia sclerotiorum; 2 ppm)?
A: 0%

Q: What about the “Observed Activity” value (Sclerotinia sclerotiorum; 6 ppm) of the same molecule?
A: 20%

Q: How did the “Observed Activity” value ([1]; 0.66 ppm) turn out when CCCn1nccc1-c1c(F)cccc1Nc1nc2ccc(F)c(F)c2nc1C [5,6-difluoro-N-[3-fluoro-2-(2-propylpyrazol-3-yl)phenyl]-3-methyl-quinoxalin-2-amine] was run?
A: 70%

Q: What about the “Observed Activity” value (Sclerotinia sclerotiorum; 6.66 ppm) of the same molecule?
A: 0%

Q: What about the “Observed Activity” value (Sclerotinia sclerotiorum; 20 ppm) of the same molecule?
A: 0%

Q: What about the “Observed Activity” value (Alternaria solani; 0.25 ppm) of the same molecule?
A: 20%

Q: And the “Observed Activity” value (Alternaria solani; 0.74 ppm)?
A: 20%

Q: How did the “Observed Activity” value ([1]; 0.01 ppm) turn out when Cc1ccc(CC2CON=C(c3cc(C)nnc3Oc3cccc(Cl)c3F)N2)c(Cl)c1 (stereo not shown) [Compound A-1.1, 3-[3-(3-chloro-2-fluoro-phenoxy)-6-methyl-pyridazin-4-yl]-5-[(2-chloro-4-methyl-phenyl)methyl]-5,6-dihydro-4H-1,2,4-oxadiazine] was run?
A: 20%

Q: And the “Observed Activity” value ([1]; 0.1 ppm)?
A: 90%

Q: And the “Observed Activity” value (Alternaria solani; 0.01 ppm)?
A: 50%

Q: What about the “Observed Activity” value (Septoria tritici; 0.01 ppm) of the same molecule?
A: 0%

Q: And the “Observed Activity” value (Septoria tritici; 0.1 ppm)?
A: 0%

Q: Which “Observed Activity” value ([1]; 0.02 ppm) does the source give for Cc1cc(C2=NOCC(Cc3ccc(Br)cc3C)N2)c(Oc2cccc(Cl)c2F)nn1 (stereo not shown) [Compound A-1.3, 5-[(4-bromo-2-methyl-phenyl)methyl]-3-[3-(3-chloro-2-fluoro-phenoxy)-6-methyl-pyridazin-4-yl]-5,6-dihydro-4H-1,2,4-oxadiazine] here?
A: 20%

Q: What about the “Observed Activity” value ([1]; 0.2 ppm) of the same molecule?
A: 90%

Q: And the “Observed Activity” value ([2]; 0.02 ppm)?
A: 0%

Q: And the “Observed Activity” value ([2]; 0.2 ppm)?
A: 0%

Q: And the “Observed Activity” value (Sclerotinia sclerotiorum; 0.02 ppm)?
A: 20%

Q: What about the “Observed Activity” value (Sclerotinia sclerotiorum; 0.2 ppm) of the same molecule?
A: 70%

Q: What about the “Observed Activity” value (Septoria tritici; 0.2 ppm) of the same molecule?
A: 0%

Q: How did the “Observed Activity” value (Sclerotinia sclerotiorum; 2.22 ppm) turn out when CC(Oc1ccc(Cl)cc1Cl)C(=O)NC(C)(C#N)C(C)C (stereo not shown) [Fenoxanil, fenoxanil] was run?
A: 0%

Q: And the “Observed Activity” value (Sclerotinia sclerotiorum; 6.66 ppm)?
A: 0%

Q: And the “Observed Activity” value (Sclerotinia sclerotiorum; 20 ppm)?
A: 0%

Q: With CCn1nccc1-c1ccccc1Nc1nc2ccc(F)c(F)c2nc1C [N-[2-(2-ethylpyrazol-3-yl)phenyl]-5,6-difluoro-3-methyl-quinoxalin-2-amine] as the molecule, how does the “Observed Activity” value (Sclerotinia sclerotiorum; 6.66 ppm) read?
A: 0%

Q: And the “Observed Activity” value (Sclerotinia sclerotiorum; 20 ppm)?
A: 0%

Q: What about the “Observed Activity” value (Alternaria solani; 0.08 ppm) of the same molecule?
A: 20%

Q: What about the “Observed Activity” value (Alternaria solani; 0.246 ppm) of the same molecule?
A: 20%

Q: What about the “Observed Activity” value (Alternaria solani; 0.74 ppm) of the same molecule?
A: 20%

Q: For CCCn1nccc1-c1c(Cl)cccc1Nc1cc2ccc(F)c(F)c2nc1C [N-[3-chloro-2-(2-propylpyrazol-3-yl)phenyl]-7,8-difluoro-2-methyl-quinolin-3-amine], which “Observed Activity” value (Sclerotinia sclerotiorum; 0.66 ppm) is on record?
A: 0%

Q: And the “Observed Activity” value (Sclerotinia sclerotiorum; 2 ppm)?
A: 0%

Q: And the “Observed Activity” value (Alternaria solani; 0.008 ppm)?
A: 0%

Q: What about the “Observed Activity” value (Alternaria solani; 0.025 ppm) of the same molecule?
A: 20%

Q: What about the “Observed Activity” value (Septoria tritici; 0.008 ppm) of the same molecule?
A: 0%

Q: What about the “Observed Activity” value (Septoria tritici; 0.025 ppm) of the same molecule?
A: 0%

Q: And the “Observed Activity” value (Septoria tritici; 0.074 ppm)?
A: 20%

Q: And the “Observed Activity” value (Septoria tritici; 0.22 ppm)?
A: 20%

Q: With Cn1nnnc1/C(=N\OCc1cccc(NC(=O)OC(C)(C)C)n1)c1ccccc1 [Picarbutrazox, picarbutrazox] as the molecule, how does the “Observed Activity” value (Sclerotinia sclerotiorum; 6.66 ppm) read?
A: 0%

Q: And the “Observed Activity” value (Sclerotinia sclerotiorum; 20 ppm)?
A: 0%

Q: COC(=O)NCc1cc(/C(C)=N/OCc2cccc(C)n2)ccc1Cl [Pyribencarb, pyribencarb] was tested. Which “Observed Activity” value ([1]; 0.22 ppm) did it give?
A: 20%

Q: And the “Observed Activity” value (Sclerotinia sclerotiorum; 0.008 ppm)?
A: 20%

Q: For Cc1ccc(N(SC(F)(Cl)Cl)S(=O)(=O)N(C)C)cc1 [Tolylfluanid, tolylfluanid], which “Observed Activity” value ([1]; 0.025 ppm) is on record?
A: 20%

Q: And the “Observed Activity” value ([1]; 0.074 ppm)?
A: 50%

Q: And the “Observed Activity” value ([2]; 0.22 ppm)?
A: 20%

Q: What about the “Observed Activity” value ([2]; 0.66 ppm) of the same molecule?
A: 90%

Q: And the “Observed Activity” value (Sclerotinia sclerotiorum; 0.025 ppm)?
A: 0%

Q: What about the “Observed Activity” value (Sclerotinia sclerotiorum; 0.074 ppm) of the same molecule?
A: 0%

Q: And the “Observed Activity” value (Sclerotinia sclerotiorum; 0.22 ppm)?
A: 90%
